Among the data in patent publication US20260001849A1, “NOVEL B0AT1 INHIBITOR” (MITSUBISHI TANABE PHARMA CORPORATION, priority 2023, published 2026) are IC50 values, retold here.

Read-outs that look alike come from different tables or passages of the source. Where only a bound is given, the exact number is not on record here.

One assay addresses T1, Human BOAT1 (Homo sapiens, UniProt Q695T7).
T1 construct: expressed in transfected cells
T1 sequence (Q695T7 1-634): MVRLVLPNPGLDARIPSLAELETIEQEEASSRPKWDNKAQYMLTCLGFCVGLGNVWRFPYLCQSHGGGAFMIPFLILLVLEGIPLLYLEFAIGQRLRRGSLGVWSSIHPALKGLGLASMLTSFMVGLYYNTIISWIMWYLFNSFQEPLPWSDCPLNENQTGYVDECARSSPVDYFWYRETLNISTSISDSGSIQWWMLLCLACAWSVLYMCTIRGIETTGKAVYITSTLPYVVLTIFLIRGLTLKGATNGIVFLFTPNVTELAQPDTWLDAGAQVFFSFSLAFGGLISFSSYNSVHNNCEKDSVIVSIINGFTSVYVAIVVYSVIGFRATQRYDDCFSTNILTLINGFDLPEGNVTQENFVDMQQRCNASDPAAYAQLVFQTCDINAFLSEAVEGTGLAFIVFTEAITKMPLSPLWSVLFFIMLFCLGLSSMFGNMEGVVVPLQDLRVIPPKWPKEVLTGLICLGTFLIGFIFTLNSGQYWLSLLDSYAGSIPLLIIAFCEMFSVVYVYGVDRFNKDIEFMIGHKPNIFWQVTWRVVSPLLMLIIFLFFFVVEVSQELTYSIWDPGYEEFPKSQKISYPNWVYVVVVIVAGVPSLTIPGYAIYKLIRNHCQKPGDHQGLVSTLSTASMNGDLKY
Briefly: hBOAT1 inhibitory test (phenylalanine uptake). The class given is cell-based. The note with it: Human BOAT1 stable expression CHO cells, phenylalanine 0.25 mM, read-out: hB0AT1 IC50. The method in brief:
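Human BOAT1 stably expressed in CHO cells (75000 cells/well) in HEPES-buffered NaCl/KCl/CaCl2/MgCl2 buffer with 0.01% BSA, compound at 0.5% DMSO, preincubated ≥30 min at ordinary temperature. Uptake of L-phenylalanine plus [3H]-L-phenylalanine (0.25 mM final) read by scintillation proximity; 100–200 min values analysed, non-specific uptake defined with […] reference inhibitor.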

A further assay concerns the target T2, hERG channel (Homo sapiens, UniProt Q12809).
T2 construct: host or cells: CHO cells
Briefly: hERG channel inhibitory activity, whole-cell patch clamp (auto-patch clamp system). The class given is cell-based. The note with it: read-out: hERG IC50. Here is the method:
Evaluation of hERG (Human Ether-a-go-go Related Gene) Channel Inhibitory Activity
The hERG channel inhibitory activity of the compound of the present invention was measured using CHO cells (B′ SYS GmbH) forcibly expressing hERG channels involved in human rapidly active delayed rectifier potassium current (IKr) by the whole-cell patch clamp method using an auto-patch clamp system (SyncroPatch384PE).
Cell suspension, extracellular fluid, intracellular fluid, and measurement plate (NPC-384 plate) were placed in the auto-patch clamp system, and hERG current measurements were performed using the whole-cell patch clamp method. The voltage protocol was set to a holding potential of −80 mV, with a depolarizing pulse preceded by −90 mV (100 ms) and followed by −80 mV (100 ms).
The depolarizing pulse was […] (500 ms), and then the hERG peak current value obtained during the ramp phase was measured when the voltage was lowered to −80 mV over 100 ms. The protocol was applied at 5-second intervals for 5 minutes for each concentration.
SyncroPatch software (manufactured by Nanion) was used for data analysis. Four concentrations were applied incrementally for each test substance, and the average hERG Peak current value obtained from the last three stimuli of each applied concentration was used as the evaluation data. The IC50 value was calculated from the inhibition rate of the current at each concentration of each test substance relative to the pre-application value using Hill's equation (Hill equation) using the relevant software.
The same experiments were also performed using the example compounds described in WO 2023/145804 as comparative example compounds 1-4.
(In general: hERG is a cardiac potassium channel; its block is linked to QT prolongation.)

Setting [1] is: [3H]-L-phenylalanine uptake, radioactivity after 100 to 200 min.

T2 sequence (Q12809 whole entry): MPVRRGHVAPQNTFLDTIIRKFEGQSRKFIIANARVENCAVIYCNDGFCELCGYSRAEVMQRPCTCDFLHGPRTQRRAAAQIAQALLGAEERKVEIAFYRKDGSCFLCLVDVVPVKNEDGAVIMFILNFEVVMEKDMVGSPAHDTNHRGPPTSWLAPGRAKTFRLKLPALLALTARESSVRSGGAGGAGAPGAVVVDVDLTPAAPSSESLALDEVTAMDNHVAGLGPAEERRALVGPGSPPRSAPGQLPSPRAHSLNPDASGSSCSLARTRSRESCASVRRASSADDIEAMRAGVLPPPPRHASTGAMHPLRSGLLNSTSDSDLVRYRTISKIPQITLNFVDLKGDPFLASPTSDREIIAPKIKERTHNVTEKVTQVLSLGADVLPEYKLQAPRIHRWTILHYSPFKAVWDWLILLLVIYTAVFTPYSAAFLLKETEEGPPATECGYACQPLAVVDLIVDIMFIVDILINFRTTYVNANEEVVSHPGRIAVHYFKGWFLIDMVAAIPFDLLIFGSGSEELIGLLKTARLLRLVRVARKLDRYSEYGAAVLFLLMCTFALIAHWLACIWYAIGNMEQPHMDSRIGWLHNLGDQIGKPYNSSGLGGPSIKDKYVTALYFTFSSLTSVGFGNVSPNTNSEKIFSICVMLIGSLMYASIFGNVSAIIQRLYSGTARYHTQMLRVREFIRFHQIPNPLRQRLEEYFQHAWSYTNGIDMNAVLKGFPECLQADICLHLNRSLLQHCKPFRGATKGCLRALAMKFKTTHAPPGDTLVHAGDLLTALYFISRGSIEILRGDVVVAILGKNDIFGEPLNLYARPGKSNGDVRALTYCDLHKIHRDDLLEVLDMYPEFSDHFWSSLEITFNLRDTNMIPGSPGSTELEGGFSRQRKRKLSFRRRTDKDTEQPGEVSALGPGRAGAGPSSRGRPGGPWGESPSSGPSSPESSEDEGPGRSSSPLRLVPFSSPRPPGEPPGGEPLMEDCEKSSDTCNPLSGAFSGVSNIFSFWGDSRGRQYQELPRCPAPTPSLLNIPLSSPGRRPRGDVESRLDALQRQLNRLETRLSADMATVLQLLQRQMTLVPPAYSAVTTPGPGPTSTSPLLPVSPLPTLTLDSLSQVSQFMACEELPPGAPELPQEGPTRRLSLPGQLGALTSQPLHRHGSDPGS

As usually defined, the IC50 is the concentration that gives 50% inhibition. Consider `O=C(/C=C/c1ccc(C(F)(F)F)cc1)NCC(=O)N1CCc2cc([C@@H]3C[C@H]3C(=O)O)ccc2C1` (single isomer, unassigned) [I-289, (1R*,2R*)-2-[2-[2-[[(E)-3-[4-(trifluoromethyl)phenyl]prop-2-enoyl]amino]acetyl]-3,4-dihydro-1H-isoquinolin-6-yl]cyclopropane-1-carboxylic acid], for which the values for the IC50 at Human BOAT1 (phenylalanine uptake) and on hERG channel were 87 nM and over 30000 nM, respectively.
Taken in the same sequence, the figures for `O=C(O)CCCN1CCN(C(=O)CNC(=O)/C=C/c2ccc(C(F)(F)F)cc2F)C(c2ccccc2)C1` (single isomer, unassigned) [I-290, 4-[4-[2-[[(E)-3-[2-fluoro-4-(trifluoromethyl)phenyl]prop-2-enoyl]amino]acetyl]-3-phenylpiperazin-1-yl]butanoic acid] were 119 nM and over 30000 nM.
With `O=C(O)Cc1cc(Cl)c2c(c1)CCN(C(=O)CNC(=O)/C=C/c1ccc(C(F)(F)F)cc1F)C2` [I-141], the IC50 at Human BOAT1 (setting [1]) is 34 nM; at hERG channel, over 30000 nM.
On the same counts, the results for `O=C(O)Cc1cc(F)c2c(c1)CCN(C(=O)CNC(=O)/C=C/c1ccc(C(F)(F)F)cc1)C2` [I-143] are 151 nM and over 30000 nM.
In the case of `O=C(O)Cc1cc(Cl)c2c(c1)CCN(C(=O)CNC(=O)/C=C/c1ccc(C(F)(F)F)cc1)C2` [I-145], the IC50 on Human BOAT1 (setting [1]) is 86 nM; at hERG channel it was over 30000 nM.
Taken in the same sequence, the figures for `O=C(O)Cc1ccc2c(c1Cl)CCN(C(=O)CNC(=O)/C=C/c1ccc(C(F)(F)F)cc1)C2` [I-146] were 67 nM and 29900 nM.
Taken in the same sequence, the figures for `N#Cc1cc(CC(=O)O)cc2c1CN(C(=O)CNC(=O)/C=C/c1ccc(C(F)(F)F)cc1F)CC2` [I-147] were 100 nM and over 30000 nM.
On the same counts, the results for `N#Cc1cc(CC(=O)O)cc2c1CN(C(=O)CNC(=O)/C=C/c1ccc(C(F)(F)F)cc1)CC2` [I-148] are 207 nM and over 30000 nM.
On to `Cc1cc(CC(=O)O)cc2c1CN(C(=O)CNC(=O)/C=C/c1ccc(C(F)(F)F)cc1)CC2` [I-149], for which the results for the IC50 on Human BOAT1 (setting [1]) and at hERG channel were 132 nM and over 30000 nM, respectively.
Taken in the same sequence, the figures for `N#Cc1c(CC(=O)O)ccc2c1CCN(C(=O)CNC(=O)/C=C/c1ccc(C(F)(F)F)cc1)C2` [I-150] were 182 nM and 24900 nM.
Taken in the same sequence, the figures for `N#Cc1c(CC(=O)O)ccc2c1CCN(C(=O)CNC(=O)/C=C/c1ccc(C(F)(F)F)cc1F)C2` [I-151] were 57 nM and over 30000 nM.
On the same counts, the results for `O=C(O)CCc1nn2c(c1Br)CN(C(=O)CNC(=O)/C=C/c1ccc(S(F)(F)(F)(F)F)cc1)CC2` [I-153] are 146 nM and over 30000 nM.
As for `N#Cc1cc(CC(=O)O)cc2c1CN(C(=O)CNC(=O)/C=C/c1ccc(I)cc1F)CC2` [I-157], the IC50 was 102 nM on Human BOAT1 (setting [1]) and over 30000 nM on hERG channel.
On the same counts, the results for `O=C(O)Cc1ccc2c(c1)CCN(C(=O)CNC(=O)/C=C/c1ccc(I)cc1F)C2` [I-158] are 83 nM and over 30000 nM.
Taken in the same sequence, the figures for `O=C(O)Cc1ccc2c(c1F)CCN(C(=O)CNC(=O)/C=C/c1ccc(C(F)(F)F)cc1)C2` [I-162] were 141 nM and over 30000 nM.
On the same counts, the results for `O=C(/C=C/c1ccc(C(F)(F)F)cc1)NCC(=O)N1CCc2cc(N3CCC(C(=O)O)CC3)ncc2C1` [I-173] are 477 nM and over 30000 nM.
As to `O=C(O)CCc1ccc2c(c1)CCN(C(=O)CNC(=O)/C=C/c1ccc(C(F)(F)F)cc1)C2` [I-174], the results for the IC50 on Human BOAT1 (setting [1]) and on hERG channel were 149 nM and over 30000 nM, respectively.
`O=C(O)Cc1cc2c(cc1F)CN(C(=O)CNC(=O)/C=C/c1ccc(C(F)(F)F)cc1)CC2` [I-180]: the results for the IC50 at Human BOAT1 (setting [1]) and on hERG channel were 122 nM and over 30000 nM, respectively.
Taken in the same sequence, the figures for `O=C(O)Cc1ccc2c(c1)CCN(C(=O)CNC(=O)/C=C/c1ccc(C(F)(F)F)cc1)C2` [I-182] were 85 nM and over 30000 nM.
As to `O=C(O)Cc1ccc2c(c1)CCN(C(=O)CNC(=O)/C=C/c1ccc(I)cc1)C2` [I-183], the IC50 is 46 nM on Human BOAT1 (setting [1]) and over 30000 nM on hERG channel.
In the case of `O=C(O)Cc1ccc2c(c1)CCN(C(=O)CNC(=O)/C=C/c1ccc(Br)cc1)C2` [I-184], the IC50 on Human BOAT1 (setting [1]) is 127 nM; at hERG channel, over 30000 nM.
On the same counts, the results for `O=C(O)Cc1ccc2c(c1)CCN(C(=O)CNC(=O)/C=C/c1ccc(Cl)cc1)C2` [I-185] are 168 nM and over 30000 nM.
On the same counts, the results for `O=C(O)Cc1ccc2c(c1)CCN(C(=O)CNC(=O)/C=C/c1ccc(Cl)cc1F)C2` [I-186] are 76 nM and over 30000 nM.
Taken in the same sequence, the figures for `O=C(O)Cc1ccc2c(c1)CCN(C(=O)CNC(=O)/C=C/c1ccc(C(F)(F)F)cc1F)C2` [I-187] were 59 nM and over 30000 nM.
As to `O=C(O)Cc1ccc2c(c1)CCN(C(=O)CNC(=O)/C=C/c1ccc(S(F)(F)(F)(F)F)cc1)C2` [I-190], the IC50 on Human BOAT1 (setting [1]) is 102 nM; on hERG channel it was over 30000 nM.
Taken in the same sequence, the figures for `O=C(O)COc1ccc2c(c1)CCN(C(=O)CNC(=O)/C=C/c1ccc(C(F)(F)F)cc1)C2` [I-191] were 104 nM and over 30000 nM.
Taken in the same sequence, the figures for `O=C(O)COc1cccc2c1CCN2C(=O)CNC(=O)/C=C/c1ccc(C(F)(F)F)cc1` [I-194] were 74 nM and over 30000 nM.
On the same counts, the results for `CC(C)(Oc1cc(F)c2c(c1)CCN(C(=O)CNC(=O)/C=C/c1ccc(C(F)(F)F)cc1)C2)C(=O)O` [I-195] are 186 nM and over 30000 nM.
Consider `C[C@@H]1CN(C(=O)CNC(=O)/C=C/c2ccc(C(F)(F)F)cc2F)[C@@H](C)CN1CCCC(=O)O` [I-197], for which the IC50 is 2400 nM on Human BOAT1 (setting [1]) and over 30000 nM on hERG channel.
Taken in the same sequence, the figures for `C[C@@H]1CN(C(=O)CNC(=O)/C=C/c2ccc(C(F)(F)F)cc2F)[C@H](C)CN1CCCC(=O)O` [I-199] were 370 nM and over 30000 nM.
On the same counts, the results for `O=C(O)Cc1nc2c(s1)CCN(C(=O)CNC(=O)/C=C/c1ccc(C(F)(F)F)cc1)C2` [I-201] are 54 nM and over 30000 nM.
Taken in the same sequence, the figures for `O=C(O)Cc1nc2c(s1)CN(C(=O)CNC(=O)/C=C/c1ccc(C(F)(F)F)cc1)CC2` [I-202] were 149 nM and over 30000 nM.
As for `O=C(O)CCCN1CCN(C(=O)CNC(=O)/C=C/c2ccc(C(F)(F)F)cc2)C(c2ccccc2)C1` (centres unmarked) [I-204], the results for the IC50 on Human BOAT1 (setting [1]) and at hERG channel were 246 nM and over 30000 nM, respectively.
On the same counts, the results for `O=C(O)Cc1cc(F)c2c(c1)CCN(C(=O)CNC(=O)/C=C/c1ccc(C(F)(F)F)cc1F)C2` [I-205] are 99 nM and over 30000 nM.
On the same counts, the results for `O=C(O)CSc1nc2c(s1)CN(C(=O)CNC(=O)/C=C/c1ccc(C(F)(F)F)cc1F)CC2` [I-214] are 91 nM and over 30000 nM.
On the same counts, the results for `O=C(O)CSc1nc2c(s1)CN(C(=O)CNC(=O)/C=C/c1ccc(C(F)(F)F)cc1)CC2` [I-215] are 165 nM and over 30000 nM.
As for `N#Cc1cc2c(cc1CC(=O)O)CCN(C(=O)CNC(=O)/C=C/c1ccc(I)cc1F)C2` [I-223], the IC50 at Human BOAT1 (setting [1]) was 86 nM; on hERG channel, 28500 nM.
Regarding `N#Cc1cc2c(cc1CC(=O)O)CCN(C(=O)CNC(=O)/C=C/c1ccc(C(F)(F)F)cc1F)C2` [I-224], the figures for the 50% inhibitory concentration (IC50) on Human BOAT1 (setting [1]) and at hERG channel were 110 nM and over 30000 nM, respectively.
Taken in the same sequence, the figures for `N#Cc1cc2c(cc1CC(=O)O)CCN(C(=O)CNC(=O)/C=C/c1ccc(C(F)(F)F)cc1F)C2` [I-225] were 295 nM and 26200 nM.
Taken in the same sequence, the figures for `O=C(O)Cc1cc2c(cc1Cl)CN(C(=O)CNC(=O)/C=C/c1ccc(C(F)(F)F)cc1)CC2` [I-226] were 101 nM and over 30000 nM.
